# Structures can show the parent of a compound that is named as a salt.
# Biological target: T1, SGK1 (Homo sapiens, UniProt O00141)
# T1 sequence (O00141 1-431): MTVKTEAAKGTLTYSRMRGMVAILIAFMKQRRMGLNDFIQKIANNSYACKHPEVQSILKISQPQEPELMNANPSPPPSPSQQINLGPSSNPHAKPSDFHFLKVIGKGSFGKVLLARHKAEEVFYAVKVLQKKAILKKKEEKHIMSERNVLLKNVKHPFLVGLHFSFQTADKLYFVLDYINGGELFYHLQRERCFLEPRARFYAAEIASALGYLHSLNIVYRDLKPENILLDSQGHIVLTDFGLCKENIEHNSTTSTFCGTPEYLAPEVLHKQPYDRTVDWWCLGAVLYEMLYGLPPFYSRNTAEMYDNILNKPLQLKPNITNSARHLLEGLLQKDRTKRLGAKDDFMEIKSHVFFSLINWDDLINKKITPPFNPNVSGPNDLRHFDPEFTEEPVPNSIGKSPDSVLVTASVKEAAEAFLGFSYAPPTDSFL
# Assay: SGK1 inhibition Assay B (Echo mass spectrometry of phosphorylated peptide product)
# Format: biochemical
# Settings: 60 min at room temperature
# Procedure: 20 μl of 2 nM SGK1 were added in 20 mM Hepes+10 mM MgCl2+0015% Brij-35+4 mM DTT+0.05 mg/ml BSA and the reaction incubated for 60 min at room temperature. The enzymatic reaction was quenched by addition 10 μl of 1% Formic Acid+150 nM Internal Standard: FITC-(Ahx)KKRNRR(pS)VA^—OH (final concentration). The plates are spun down at 3700 RPM for 10 minutes to remove all precipitate. Samples were loaded on to the Sciex Echo Mass Spec attached to a Sciex 6500 equipped with ESI and was used to analyze the phosphorylated peptide product. MRM transition of product and internal standard were monitored at m/z 755 to 937.5 and m/z 757.7 to 941.3 respectively. Peak area of analyte was normalized with internal standard.
# Dose response curves were generated to determine the concentration required for inhibiting 50% of the enzyme activity. Compounds were dissolved at 10 mM in dimethylsulfoxide (DMSO) and evaluated at eleven concentrations.
row,Compound,IC50 [nM]
1,"CC(=O)N1CC=C(c2cc(N3CCC[C@@H](NC(=O)c4sc(Cl)cc4OCC(C)(C)O)C3)c3c(N)ncnn23)C1 [Example 921, (R)—N-(1-(7-(1-acetyl-2,5-dihydro-1H-pyrrol-3-yl)-4-aminopyrrolo[2,1-f][1,2,4]triazin-5-yl)piperidin-3-yl)-5-chloro-3-(2-hydroxy-2-methylpropoxythiophene-2-carboxamide TFA salt]",7
2,"CN1[C@@H]2CC[C@H]1C[C@H](Oc1cc(Cl)sc1C(=O)N[C@@H]1CCCN(c3cc(-c4cnc(-n5cnnn5)c(F)c4)n4ncnc(N)c34)C1)C2 [Example 843, N-((R)-1-(4-amino-7-(5-fluoro-6-(1H-tetrazol-1-yl)pyridin-3-yl)pyrrolo[2,1-f][1,2,4]triazin-5-yl)piperidin-3-yl)-5-chloro-3-(((1R,3s,5S)-8-methyl-8-azabicyclo[3.2.1]octan-3-yl)oxy)thiophene-2-carboxamide]",2
3,"CCN1C2CCC1CC(Oc1nc(C)sc1C(=O)NC1CCCN(c3cc(-c4ccc(C#N)nc4)n4ncnc(N)c34)C1)C2 [Example 964, N-((R)-1-(4-amino-7-(6-cyanopyridin-3-yl)pyrrolo[2,1-f][1,2,4]triazin-5-y1)piperidin-3-y1)-4-(((1R,3s,5S)-8-ethyl-8-azabicyclo[3.2.]]octan-3-y])oxy)-2-methylthiazole-5-carboxamide]",46
4,"COc1nc(-c2cc(N3CCC[C@@H](NC(=O)c4sc(C)nc4OC4CCC(N5CCC[C@H]5C)CC4)C3)c3c(N)ncnn23)ccc1C(N)=O (stereo partly drawn) [Example 1044, N—((R)-1-(4-amino-7-(5-carbamoyl-6-methoxypyridin-2-yl)pyrrolo[2,1-f][1,2,4]triazin-5-yl)piperidin-3-yl)-2-methyl-4-((4-((R)-2-methylpyrrolidin-1-yl)cyclohexyl)oxy)thiazole-5-carboxamide]",2.8
5,"(R)-N-(1-(4-amino-7-(4-(5-methyl-1H-tetrazol-1-yl)phenyl)pyrrolo[2,1-f][1,2,4]triazin-5-yl)piperidin-3-yl)-2-(4-methylpiperazin-1-yl)pyrimidine-4-carboxamide [Example 857]",15
6,"CC(C)N1CC2(CN(c3cccc(C(=O)N[C@@H]4CCCN(c5cc(-c6ccc(-n7cnnn7)c(F)c6)n6ncnc(N)c56)C4)n3)C2)C1 [Example 816, (R)-N-(1-(4-amino-7-(3-fluoro-4-(1H-tetrazol-1-yl)phenyl)pyrrolo[2,1-f][1,2,4]triazin-5-yl)piperidin-3-yl)-6-(6-isopropyl-2,6-diazaspiro[3.3]heptan-2-yl)picolinamide]",6

# Further compounds by falling IC50, results first:
row,IC50 [nM],Compound
1,9,"CC(C)N1CC2(CN(c3cccc(C(=O)N[C@@H]4CCCN(c5cc(-c6ccc(S(C)(=O)=O)c(F)c6)n6ncnc(N)c56)C4)n3)C2)C1 [Example 833, (R)-N-(1-(4-amino-7-(3-fluoro-4-(methylsulfonyl)phenyl)pyrrolo[2,1-f][1,2,4]triazin-5-yl)piperidin-3-yl)-6-(6-isopropyl-2,6-diazaspiro[3.3]heptan-2-yl)picolinamide]"
2,2.1,"CC[C@H](CO)N[C@H]1CC[C@@H](Oc2nc(C)sc2C(=O)N[C@@H]2CCCN(c3cc(C4=C(C)C(=O)OC4)n4ncnc(N)c34)C2)CC1 [Example 1010, N-((R)-1-(4-amino-7-(4-methyl-5-oxo-2,5~dihydrofuran~3-yl)pyrrolo[2,1-f][1,2,4]triazin-5-y1)piperidin-3-y1)-4-((4-(((R)-1-hydroxybutan-2-yl)amino)cyclohexyl)oxy)-2-methylthiazole-5-carboxamide]"
3,0.9,"[2H]C([2H])([2H])N([C@H]1CC[C@@H](Oc2nc(C)sc2C(=O)N[C@@H]2CCCN(c3cc(C4=CC(=O)OC4)n4ncnc(N)c34)C2)CC1)C([2H])([2H])[2H] [Example 1004, N—((R)-1-(4-amino-7-(5-oxo-2,5-dihydrofuran-3-yl)pyrrolo[2,1-f][1,2,4]triazin-5-yl)piperidin-3-yl)-4-(((1S,4S)-4-(bis(methyl-d3)amino)cyclohexyl)oxy)-2-methylthiazole-5-carboxamide]"

# Reference: patent US20260250290A1 (BRISTOL-MYERS SQUIBB COMPANY, priority 2023, published 2026)
